The text below walks through data of US6342492B1, “Anti-viral triaza compounds and compositions” (The Research Foundation of State University of New York, priority 1995, dated 2002).

Counter-ions that a name gives are not always drawn. Like-named read-outs stand apart in the source and are kept apart here. Some results are limits rather than exact numbers.

The test system of one series is Human Cytomegalovirus. Nature of the series: Semi-automated CPE-inhibition assay for HCMV in human foreskin fibroblast cells. It counts as cell-based. As to conditions: Human betaherpesvirus 5. The procedure:
(§1) Additional antiviral testing was carried out to test the efficacy of compounds of the invention against human cytomegalovirus (HCMV) and another herpesvirus, Variecella Zoster Virus(VZV). The compounds tested were compound (1), the HCl salt of compound (1), Compounds 211, 43, 213 and 214.

The nature of series [1]: Inhibition of cell proliferation (cytotoxicity) in herpesvirus screening. It counts as cell-based, human. Particulars: human, human foreskin fibroblast cells, inhibit cell proliferation by 50%.
Another series has as its system Varicella Zoster Virus. Nature of the series: Plaque reduction assay for VZV (Ellen strain). It counts as cell-based. As to conditions: Human alphaherpesvirus 3. The procedure:
as §1

A further series has as its system HIV strain MB48. Nature of the series: Reverse transcriptase (RT) assay in MT-2 cells, HIV strain MB48. It counts as cell-based. Particulars: Reverse transcriptase (RT) assay in MT-2 cells, read-out: ED50 MB48/MT-2.
A further series has as its system HIV strain MD48. Nature of the series: MAGI assay on HeLa-MAGIC cells (plaque inhibition). Particulars: MAGI assay on HeLa-MAGIC cells (plaque inhibition), read-out: ED50 MD48/HeLa. It counts as cell-based.
For series [2], the system named is HIV strain 2h, a primary pediatric clinical isolate. The series can be described thus: Protein (p24) assay in PBMC cells with 2h. It counts as cell-based. Particulars: Protein (p24) assay in PBMC cells, read-out: ED50 2h/PBMC.
Where [3] appears, read: HCMV CPE-inhibition screen, read-out: Human Cytomegalovirus CC50.
[4] abbreviates: VZV screen, read-out: Varicella Zoster Virus CC50.
The mark [5] stands for this setting: Human immunodeficiency virus 1, MT2.
The mark [6] stands for this setting: Human immunodeficiency virus 1, 2 h.

`C=C1CN(S(=O)(=O)c2ccccc2)CCCN(Cc2ccccc2)CCCN(S(=O)(=O)c2ccccc2)C1` (as salt: HCl) [Compound 211, 9-Benzyl-3-methylene-1,5-dibenzenesulfonyl-1,5,9-triazacyclododecane]: the melting point fell in the range of 135 to 136 °C.
With `C=C1CN(S(=O)(=O)c2ccc(C)cc2)CCC[N+]([O-])(Cc2ccccc2)CCCN(S(=O)(=O)c2ccc(C)cc2)C1` [Compound 43, 9-Benzyl-3-methylene-1,5-ditosyl-1,5,9-triazacyclododecane-9-oxide], the EC50 was greater than 170 µM in the series on Human Cytomegalovirus; 24.3 µM in the series on Varicella Zoster Virus; 1.8 µM with HIV strain MB48 (setting [5]); 3.5 µM in the series with HIV strain MD48 (Human immunodeficiency virus 1); 0.5 µM in series [2] (setting [6]). Moreover, the CC50 in series [1] (setting [3]) and in series [1] (setting [4]) was greater than 170 µM each time.
Compound `O=S(=O)(NCCCN(CCCNS(=O)(=O)c1ccccc1)Cc1ccccc1)c1ccccc1` (as salt: hydrochloride) [Compound 210, N-Benzylbis(3-benzenesulfonamidopropyl)amine] registered a melting point of 135 to 136 °C.
In the case of `C=C1CN(S(=O)(=O)c2ccccc2)CCCN(Cc2ccccc2)CCCN(S(=O)(=O)c2ccccc2)C1` [Compound 211, 9-Benzyl-3-methylene-1,5-dibenzenesulfonyl-1,5,9-triazacyclododecane], the EC50 was greater than 170 µM with Human Cytomegalovirus; 91.7 µM in the series on Varicella Zoster Virus; 1.9 µM in the series with HIV strain MB48 (setting [5]); 1.5 µM with HIV strain MD48 (Human immunodeficiency virus 1); 0.5 µM in series [2] (setting [6]). For the same compound, the CC50 in series [1] (setting [3]) and in series [1] (setting [4]) was greater than 170 µM throughout.
As for `C=CCN(CCCN(CCCN(CC=C)S(=O)(=O)c1ccc(C)cc1)Cc1ccccc1)S(=O)(=O)c1ccc(C)cc1` [Compound 004, N-Benzylbis[3-(N′-2-propenyltoluenesulfonamido)propyl]amine dihydrogen sulfate], the EC50 in the series with HIV strain MB48 is 2.6 µM; with HIV strain MD48, 3.5 µM; in series [2] it was 0.5 µM.
